ChEMBL document CHEMBL3526121, “Pharmacokinetics, bioavailability, tissue distribution, excretion, and metabolite identification of methoxyflavones in Kaempferia parviflora extract in rats” (Drug Metab Dispos, 2012)

Tests used:
[1] = Drug excretion in Wistar rat urine at 750 mg/kg, po after 12 hrs by HPLC-UV analysis; type: ADME, organism-based; set-up: dose 750 mg/kg, route oral; details: in vivo
[2] = Drug excretion in Wistar rat feces at 750 mg/kg, po after 12 hrs by HPLC-UV analysis; type: ADME, organism-based; set-up: dose 750 mg/kg, route oral; details: in vivo
[3] = Drug metabolism in Wistar rat assessed as excretion of 2-(3-hydroxy-4-methoxyphenyl)-3,5,7-trimethoxy-4H-chromen-4-one in urine at 750 mg/kg, po by LC-MS and LC-MS/MS analysis; type: ADME, organism-based; set-up: dose 750 mg/kg, route oral; details: in vivo
[4] = Drug excretion in Wistar rat urine at 750 mg/kg, po after 24 to 72 hrs by HPLC-UV analysis; type: ADME, organism-based; set-up: dose 750 mg/kg, route oral; details: in vivo
[5] = Drug excretion in Wistar rat feces at 750 mg/kg, po after 18 to 24 hrs by HPLC-UV analysis; type: ADME, organism-based; set-up: dose 750 mg/kg, route oral; details: in vivo
[6] = Drug metabolism in Wistar rat assessed as excretion of 5-hydroxy-2-(3-hydroxy-4-methoxyphenyl)-3,7-dimethoxy-4H-chromen-4-one in urine/feces at 750 mg/kg, po by LC-MS and LC-MS/MS analysis; type: ADME, organism-based; set-up: dose 750 mg/kg, route oral; details: in vivo
[7] = AUC in Wistar rat at 250 mg/kg, po by HPLC analysis; type: ADME, organism-based; set-up: dose 250 mg/kg, route oral; details: plasma
[8] = AUC in Wistar rat at 250 mg/kg, iv by HPLC analysis; type: ADME, organism-based; set-up: dose 250 mg/kg, route intravenous; details: plasma
[9] = Half life in Wistar rat at 250 mg/kg, po by HPLC analysis; type: ADME, organism-based; set-up: dose 250 mg/kg, route oral; details: in vivo
Rattus norvegicus [10] = experiment: Half life in Wistar rat at 250 mg/kg, iv by HPLC analysis; type: ADME, organism-based; set-up: dose 250 mg/kg, route intravenous; details: in vivo
[11] = Elimination rate constant in Wistar rat at 250 mg/kg, po by HPLC analysis; type: ADME, organism-based; set-up: dose 250 mg/kg, route oral; details: in vivo, read-out: Ke (converted)
Rattus norvegicus [12] = experiment: Elimination rate constant in Wistar rat at 250 mg/kg, iv by HPLC analysis; type: ADME, organism-based; set-up: dose 250 mg/kg, route intravenous; details: in vivo
[13] = Clearance in Wistar rat at 250 mg/kg, po by HPLC analysis; type: ADME, organism-based; set-up: dose 250 mg/kg, route oral; details: in vivo
[14] = Clearance in Wistar rat at 250 mg/kg, iv by HPLC analysis; type: ADME, organism-based; set-up: dose 250 mg/kg, route intravenous; details: in vivo
[15] = Tmax in Wistar rat at 250 mg/kg, po by HPLC analysis; type: ADME, organism-based; set-up: dose 250 mg/kg, route oral; details: in vivo
[16] = Cmax in Wistar rat at 250 mg/kg, po by HPLC analysis; type: ADME, organism-based; set-up: dose 250 mg/kg, route oral; details: in vivo
Rattus norvegicus [17] = experiment: Volume of distribution in Wistar rat at 250 mg/kg, po by HPLC analysis; type: ADME, organism-based; set-up: dose 250 mg/kg, route oral; details: in vivo
Rattus norvegicus [18] = experiment: Absorption rate constant in Wistar rat at 250 mg/kg, po by HPLC analysis; type: ADME, organism-based; set-up: dose 250 mg/kg, route oral; details: in vivo
[19] = Oral bioavailability in Wistar rat at 250 mg/kg by HPLC analysis; type: ADME, organism-based; details: in vivo
Liver = experiment: AUC (0.083 to 4 hrs) in Wistar rat liver at 750 mg/kg, po by LC-MS/MS analysis; type: ADME, organism-based; set-up: time 0.083-4 hr, dose 750 mg/kg, route oral; details: in vivo
Kidney = experiment: AUC (0.083 to 4 hrs) in Wistar rat kidney at 750 mg/kg, po by LC-MS/MS analysis; type: ADME, organism-based; set-up: time 0.083-4 hr, dose 750 mg/kg, route oral; details: in vivo
Lung = experiment: AUC (0.083 to 4 hrs) in Wistar rat lung at 750 mg/kg, po by LC-MS/MS analysis; type: ADME, organism-based; set-up: time upper 4 hr, time lower 0.083 hr, dose 750 mg/kg, route oral; details: in vivo
Brain = experiment: AUC (0.083 to 4 hrs) in Wistar rat brain at 750 mg/kg, po by LC-MS/MS analysis; type: ADME, organism-based; set-up: time 0.083-4 hr, dose 750 mg/kg, route oral; details: in vivo
[20] = Cmax in Wistar rat liver at 750 mg/kg, po by LC-MS/MS analysis; type: ADME, organism-based; set-up: dose 750 mg/kg, route oral
[21] = Cmax in Wistar rat kidney at 750 mg/kg, po by LC-MS/MS analysis; type: ADME, organism-based; set-up: dose 750 mg/kg, route oral
[22] = Cmax in Wistar rat lung at 750 mg/kg, po by LC-MS/MS analysis; type: ADME, organism-based; set-up: dose 750 mg/kg, route oral
[23] = Cmax in Wistar rat brain at 750 mg/kg, po by LC-MS/MS analysis; type: ADME, organism-based; set-up: dose 750 mg/kg, route oral
[24] = Cmax in Wistar rat testes at 750 mg/kg, po by LC-MS/MS analysis; type: ADME, organism-based, Testis; set-up: dose 750 mg/kg, route oral
[25] = Tmax in Wistar rat liver at 750 mg/kg, po by LC-MS/MS analysis; type: ADME, organism-based; set-up: dose 750 mg/kg, route oral
[26] = Tmax in Wistar rat kidney at 750 mg/kg, po by LC-MS/MS analysis; type: ADME, organism-based; set-up: dose 750 mg/kg, route oral
[27] = Tmax in Wistar rat lung at 750 mg/kg, po by LC-MS/MS analysis; type: ADME, organism-based; set-up: dose 750 mg/kg, route oral
[28] = Tmax in Wistar rat brain at 750 mg/kg, po by LC-MS/MS analysis; type: ADME, organism-based; set-up: dose 750 mg/kg, route oral
[29] = Tmax in Wistar rat testes at 750 mg/kg, po by LC-MS/MS analysis; type: ADME, organism-based, Testis; set-up: dose 750 mg/kg, route oral
[30] = Drug metabolism in Wistar rat assessed as excretion of 3,5-dihydroxy-2-(3-hydroxy-4-methoxyphenyl)-7-methoxy-4H-chromen-4-one in feces at 750 mg/kg, po by LC-MS and LC-MS/MS analysis; type: ADME, organism-based; set-up: dose 750 mg/kg, route oral; details: in vivo
[31] = Drug excretion in Wistar rat urine at 750 mg/kg, po after up to 72 hrs by HPLC-UV analysis; type: ADME, organism-based; set-up: dose 750 mg/kg, route oral; details: read-out: Drug excretion
[32] = Drug excretion in Wistar rat feces at 750 mg/kg, po after up to 72 hrs by HPLC-UV analysis; type: ADME, organism-based; set-up: dose 750 mg/kg, route oral; details: faeces, read-out: Drug excretion
[33] = AUC (0.083 to 4 hrs) in Wistar rat testes at 750 mg/kg, po by LC-MS/MS analysis; type: ADME, organism-based, Testis; set-up: time 0.083-4 hr, dose 750 mg/kg, route oral; details: in vivo
[34] = Drug metabolism in Wistar rat urine/feces treated with 750 mg/kg, po of 5,7,4'-trimethoxyflavone by LC-MS and LC-MS/MS analysis; type: ADME, organism-based; set-up: dose 750 mg/kg, route oral; details: in vivo
[35] = Drug metabolism in Wistar rat urine/feces treated with 750 mg/kg, po of 5,7-dimethoxyflavone by LC-MS and LC-MS/MS analysis; type: ADME, organism-based; set-up: dose 750 mg/kg, route oral; details: in vivo
[36] = Drug metabolism in Wistar rat urine/feces treated with 750 mg/kg, po of 3,5,7,4'-tetramethoxyflavone by LC-MS and LC-MS/MS analysis; type: ADME, organism-based; set-up: dose 750 mg/kg, route oral; details: in vivo
[37] = Drug metabolism in Wistar rat urine/feces treated with 750 mg/kg, po of 3,5,7,3',4'-pentamethoxyflavone by LC-MS and LC-MS/MS analysis; type: ADME, organism-based; set-up: dose 750 mg/kg, route oral; details: in vivo

In the case of `COc1cc(O)c2c(=O)c(OC)c(-c3ccccc3)oc2c1`, the Drug excretion [1] is reported as “Active” and the Drug excretion [2] is reported as “Active”.

For `COc1cc(OC)c2c(=O)c(OC)c(-c3ccc(OC)c(OC)c3)oc2c1`, the Drug metabolism [3] was “metabolite_detected”, the Drug excretion [4] was “Active” and the Drug excretion [5] was “Active”. For the same compound, the Drug metabolism [6] was “metabolite_detected”, the AUC [7] was 3650 ng·h/mL and the AUC [8] was 76800 ng·h/mL. For the same compound, the half-life [9] was 3.12 h, the t1/2 (Rattus norvegicus [10]) was 2.36 h and the k el [11] was 7.78e-05 s⁻¹. The Ke (Rattus norvegicus [12]) was 0.61 h⁻¹, the CL/F [13] was 10.4 mL/min and the clearance [14] was 0.359 mL/min. It also gave a Tmax [15] of 1.71 h, a Cmax [16] of 550 ng/mL and a Vd (Rattus norvegicus [17]) of 2637.13 mL. It also gave a ka (Rattus norvegicus [18]) of 1.23 h⁻¹, a bioavailability [19] of 3.32% and an AUC (Liver) of 9.07 µg·h/g. The AUC (Kidney) was 2.03 µg·h/g, the AUC (Lung) was 1.6 µg·h/g and the AUC (Brain) was 0.76 µg·h/g. The Cmax [20] was 3100 ng/g, the Cmax [21] was 1000 ng/g and the Cmax [22] was 2230 ng/g. For the same compound, the Cmax [23] was 260 ng/g, the Cmax [24] was 500 ng/g and the Tmax [25] was 3.43 h. For the same compound, the Tmax [26] was 3.43 h, the Tmax [27] was 4.8 min and the Tmax [28] was 3.14 h. The Tmax [29] was 2.36 h, the Drug excretion [1] was “Active” and the Drug excretion [2] was “Active”. The Drug metabolism [30] was “metabolite_detected”, the dose excreted at 72 h [31] was 1.06% and the dose excreted at 72 h [32] was 0.79%. The AUC [33] was 1.01 µg·h/g.

For `COc1ccc(-c2cc(=O)c3c(O)cc(OS(=O)(=O)O)cc3o2)cc1`, the Drug metabolism [34] was “metabolite_detected”.

For `COc1ccc(-c2cc(=O)c3c(OS(=O)(=O)O)cc(OC)cc3o2)cc1`, the Drug metabolism [34] was “metabolite_detected”.

For `COc1cc(OS(=O)(=O)O)c2c(=O)cc(-c3ccccc3)oc2c1`, the Drug metabolism [35] was “metabolite_detected”.

With `COc1ccc(-c2oc3cc(OC)cc(O)c3c(=O)c2O)cc1` the Drug metabolism [36] was “metabolite_detected”.

With `COc1cc(OC)c2c(=O)c(OC)c(-c3ccc(OC)c(O)c3)oc2c1` the Drug metabolism [37] was “metabolite_detected”.

In the case of `COc1ccc(-c2oc3cc(OC)cc(O)c3c(=O)c2OC)cc1`, the Drug excretion [1] is reported as “Active” and the Drug excretion [2] is reported as “Active”.

With `COc1cc(O)c2c(=O)c(OC)c(-c3ccc(OC)c(O)c3)oc2c1` [AYANIN] the Drug metabolism [37] was “metabolite_detected”.
